Values joined by “and” are separate entries in the source; they are usually repeats but may differ in a detail not shown here. Equal entries are not always repeated. Inconclusive results and toxic doses are left out. Cut-off read from the data, not from the text of the source: active = T/C of 150% or more; inactive = T/C below 125%.
Test system: L1210 leukemia ip in BDF1 mice, survival T/C
Experiment: NCI In Vivo Anticancer Drug Screen. Data for tumor model L1210 Leukemia (intraperitoneal) in B6D2F1 (BDF1) mice
Settings: endpoint: mean survival time, higher = longer survival
How it was run: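 In this screen, tumor-bearing mice given compound are compared to those given vehicle, and their survival values are reported as a treated-to-control quotient.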

[1] = dose: 100.0 mg/kg/injection, schedule: Q04DX003 (ip), vehicle: saline with Tween-80
[2] = dose: 200.0 mg/kg/injection, schedule: Q04DX003 (ip), vehicle: saline with Tween-80
[3] = dose: 400.0 mg/kg/injection, schedule: Q04DX003 (ip), vehicle: saline with Tween-80
[4] = dose: 100.0 mg/kg/injection, schedule: Q04DX002 (ip), vehicle: saline with Tween-80
[5] = dose: 200.0 mg/kg/injection, schedule: Q04DX002 (ip), vehicle: saline with Tween-80
[6] = dose: 400.0 mg/kg/injection, schedule: Q04DX002 (ip), vehicle: saline with Tween-80
[7] = dose: 100.0 mg/kg/injection, schedule: Q01DX001 (ip), vehicle: saline
[8] = dose: 200.0 mg/kg/injection, schedule: Q01DX001 (ip), vehicle: saline
[9] = dose: 400.0 mg/kg/injection, schedule: Q01DX001 (ip), vehicle: saline
[10] = dose: 100.0 mg/kg/injection, schedule: Q01DX009 (ip), vehicle: saline with Tween-80
[11] = dose: 200.0 mg/kg/injection, schedule: Q01DX009 (ip), vehicle: saline with Tween-80
[12] = dose: 50.0 mg/kg/injection, schedule: Q01DX001 (ip), vehicle: saline
[13] = dose: 50.0 mg/kg/injection, schedule: Q01DX009 (ip), vehicle: saline
[14] = dose: 100.0 mg/kg/injection, schedule: Q01DX009 (ip), vehicle: saline
[15] = dose: 100.0 mg/kg/injection, schedule: Q04DX003 (ip), vehicle: saline
[16] = dose: 200.0 mg/kg/injection, schedule: Q04DX003 (ip), vehicle: saline
[17] = dose: 400.0 mg/kg/injection, schedule: Q04DX003 (ip), vehicle: saline
[18] = dose: 100.0 mg/kg/injection, schedule: Q01DX001 (ip), vehicle: carboxymethylcellulose (CMC)
[19] = dose: 100.0 mg/kg/injection, schedule: Q04DX003 (ip), vehicle: Klucel (hydroxypropylcellulose) (HPC)
[20] = dose: 200.0 mg/kg/injection, schedule: Q01DX001 (ip), vehicle: carboxymethylcellulose (CMC)
[21] = dose: 200.0 mg/kg/injection, schedule: Q04DX003 (ip), vehicle: Klucel (hydroxypropylcellulose) (HPC)
[22] = dose: 100.0 mg/kg/injection, schedule: Q04DX003 (ip), vehicle: acetone
[23] = dose: 200.0 mg/kg/injection, schedule: Q01DX009 (ip), vehicle: saline
[24] = dose: 200.0 mg/kg/injection, schedule: Q04DX003 (ip), vehicle: acetone
[25] = dose: 400.0 mg/kg/injection, schedule: Q04DX003 (ip), vehicle: acetone
[26] = dose: 400.0 mg/kg/injection, schedule: Q04DX003 (ip), vehicle: Klucel (hydroxypropylcellulose) (HPC)
[27] = dose: 400.0 mg/kg/injection, schedule: Q01DX009 (ip), vehicle: saline with Tween-80

Measured: T/C

CCCCCCCCCCCCCCCC(=O)OCCCCCCCCCCC
inactive: [1] 100 % of control | [2] 92 % of control | [3] 101 % of control

C=C1C(=O)OC2C1CCC(C)C1(CCC(=O)O1)C2(C)O (stereo not drawn)
inactive: [1] 96 % of control | [2] 96 % of control | [3] 96 % of control

C=CCOC(=O)Nc1cccc(O)c1
inactive: [4] 106 % of control | [5] 110 % of control | [6] 103 % of control

COC(=O)C1=CN=NC1=[N+]=[N-]
inactive: dose: 10.0 mg/kg/injection, schedule: Q01DX001 (ip), vehicle: saline 103 % of control | dose: 20.0 mg/kg/injection, schedule: Q01DX001 (ip), vehicle: saline 97 % of control

CS(=O)(=O)Oc1c(Cl)cc(Cl)c2ccccc12
inactive: [7] 98 % of control | [8] 92 % of control | [9] 101 % of control

N#CC(C#N)=C/C=C/C=C/c1c(Cl)cccc1Cl
inactive: [1] 92 % of control | [2] 103 % of control | [3] 105 % of control

Cc1ccccc1NC=O
inactive: [10] 101 % of control | [1] 87 % of control | [11] 101 % of control | [2] 91 % of control | [3] 100 % of control

CCCOP(=O)(OCCC)C(OC(=O)C(C)(C)Br)=C(C)C
inactive: [1] 100 % of control | [2] 100 % of control | [3] 100 % of control

CC(C)(CBr)CC(=O)NC1CCCCC1
inactive: [12] 98 % of control | [7] 98 % of control | [8] 96 % of control | [9] 104 % of control

CCCCSc1cc(C)nc2ccccc12
inactive: dose: 25.0 mg/kg/injection, schedule: Q01DX009 (ip), vehicle: saline with Tween-80 100 % of control | dose: 25.0 mg/kg/injection, schedule: Q04DX002 (ip), vehicle: saline with Tween-80 93 % of control | dose: 50.0 mg/kg/injection, schedule: Q01DX009 (ip), vehicle: saline with Tween-80 96 % of control | dose: 50.0 mg/kg/injection, schedule: Q04DX002 (ip), vehicle: saline with Tween-80 96 % of control | [10] 93 % of control | [4] 93 % of control

N#CCCNc1ccc(NC(=O)C(F)(F)F)cc1
inactive: dose: 25.0 mg/kg/injection, schedule: Q01DX009 (ip), vehicle: saline 92 % of control | [13] 92 % of control | [14] 94 % of control | [15] 87 % of control

CC(=O)OCc1cc2cc(O)ccc2nc1C
inactive: [15] 110 % of control | [16] 110 % of control | [17] 116 % of control

CCc1ccc(N=Nc2ccc(N(C)C)cc2)cc1
inactive: dose: 50.0 mg/kg/injection, schedule: Q04DX003 (ip), vehicle: Klucel (hydroxypropylcellulose) (HPC) 93 % of control | [18] 110 % of control | [19] 96 % of control | [20] 89 % of control | [21] 96 % of control | dose: 400.0 mg/kg/injection, schedule: Q01DX001 (ip), vehicle: carboxymethylcellulose (CMC) 101 % of control

COc1cc(CCN)cc(OC)c1OC
inactive: dose: 75.0 mg/kg/injection, schedule: Q01DX001 (ip), vehicle: saline 104 % of control | dose: 150.0 mg/kg/injection, schedule: Q01DX001 (ip), vehicle: saline 103 % of control | dose: 300.0 mg/kg/injection, schedule: Q01DX001 (ip), vehicle: saline 104 % of control

Cc1ccc(NN=Nc2ccccc2C#N)cc1
inactive: [13] 92 % of control | [14] 92 % of control | [22] 110 % of control | [23] 88 % of control | [24] 100 % of control | [25] 103 % of control

CCOC(=O)C(=Cc1ccc(Cl)cc1)C(=O)OCC
inactive: dose: 25.0 mg/kg/injection, schedule: Q01DX009 (ip), vehicle: Klucel (hydroxypropylcellulose) (HPC) 95 % of control | dose: 50.0 mg/kg/injection, schedule: Q01DX009 (ip), vehicle: Klucel (hydroxypropylcellulose) (HPC) 97 % of control | dose: 100.0 mg/kg/injection, schedule: Q01DX009 (ip), vehicle: Klucel (hydroxypropylcellulose) (HPC) 102 % of control | [19] 107 % of control | [21] 98 % of control | [26] 100 % of control

O=S(=O)(Cc1ccccc1)C1CCCC1
inactive: [7] 104 % of control | [14] 96 % of control | [22] 103 % of control | [8] 104 % of control | [23] 110 % of control | [24] 97 % of control | [9] 93 % of control | dose: 400.0 mg/kg/injection, schedule: Q01DX009 (ip), vehicle: saline 113 % of control | [25] 102 % of control

C/C(=N/N(C)C)c1cccc(C(F)(F)F)c1
inactive: [15] 98 % of control | [16] 116 % of control

C[AsH](C)CC[AsH](C)C.C[AsH](C)CC[AsH](C)C.C[AsH](C)CC[AsH](C)C.[Ni]
inactive: dose: 25.0 mg/kg/injection, schedule: Q04DX002 (ip), vehicle: saline 103 % of control | dose: 50.0 mg/kg/injection, schedule: Q04DX002 (ip), vehicle: saline 109 % of control

Cc1ccc(C(=O)/C=C/c2ccccc2O)cc1
inactive: [10] 100 % of control | [1] 105 % of control | [11] 98 % of control | [2] 100 % of control | [27] 94 % of control | [3] 98 % of control

NC(CS)C(=O)O (stereo not drawn) (tested in a mixture with another compound)
inactive: [7] 108 % of control | [8] 92 % of control | [9] 89 % of control

Nc1ccccc1S(N)(=O)=O
inactive: dose: 25.0 mg/kg/injection, schedule: Q04DX002 (ip), vehicle: Klucel (hydroxypropylcellulose) (HPC) 97 % of control | dose: 50.0 mg/kg/injection, schedule: Q04DX002 (ip), vehicle: Klucel (hydroxypropylcellulose) (HPC) 97 % of control | dose: 100.0 mg/kg/injection, schedule: Q04DX002 (ip), vehicle: Klucel (hydroxypropylcellulose) (HPC) 101 % of control and 120 % of control | dose: 200.0 mg/kg/injection, schedule: Q04DX002 (ip), vehicle: Klucel (hydroxypropylcellulose) (HPC) 97 % of control and 100 % of control | dose: 400.0 mg/kg/injection, schedule: Q04DX002 (ip), vehicle: Klucel (hydroxypropylcellulose) (HPC) 113 % of control

BrCc1ccc(Br)cc1
inactive: [18] 96 % of control | [20] 91 % of control

COc1ccc([P+](=S)SS[P+](=S)c2ccc(OC)cc2)cc1 (stereo not drawn)
inactive: [4] 101 % of control | [5] 97 % of control

ClC(CN1CCCCC1)C(Cl)c1ccccc1 (stereo not drawn)
inactive: [13] 90 % of control | dose: 50.0 mg/kg/injection, schedule: Q04DX003 (ip), vehicle: saline sonified 96 % of control | [14] 91 % of control | dose: 100.0 mg/kg/injection, schedule: Q04DX003 (ip), vehicle: saline sonified 91 % of control | dose: 200.0 mg/kg/injection, schedule: Q04DX003 (ip), vehicle: saline sonified 101 % of control

Nc1ncccc1[N+](=O)[O-]
inactive: [10] 109 % of control | [11] 98 % of control | [27] 112 % of control

Cc1ccccc1C(C)(O)c1cnc(C)n1Cc1ccccc1 (stereo not drawn)
inactive: [10] 94 % of control and 98 % of control | [4] 97 % of control and 103 % of control | [11] 95 % of control and 103 % of control | [5] 97 % of control and 100 % of control | [27] 98 % of control and 100 % of control | [6] 95 % of control and 101 % of control

COc1ccc(NCCC(O)CN2CCOCC2)cc1 (stereo not drawn)
inactive: [12] 100 % of control | [7] 94 % of control | [8] 119 % of control

Nc1nc2c(c(-c3ccc(Cl)cc3)n1)CN(CCCC(=O)O)C2=O
inactive: [7] 105 % of control | [15] 96 % of control | [8] 98 % of control | [16] 104 % of control | [9] 100 % of control | [17] 107 % of control

O=[N+]([O-])c1cc(Br)c(Br)cc1N1CCCC1
inactive: [15] 98 % of control | [16] 88 % of control | [17] 86 % of control

O=C(O)c1cc(N=Nc2ccccc2C(=O)O)ccc1O
inactive: [19] 92 % of control | [21] 94 % of control | [26] 112 % of control

O=C(Nc1cccc(Cl)c1)SCCSC(=O)Nc1cccc(Cl)c1
inactive: dose: 100.0 mg/kg/injection, schedule: Q01DX001 (ip), vehicle: saline with Tween-80 88 % of control | [1] 98 % of control | dose: 200.0 mg/kg/injection, schedule: Q01DX001 (ip), vehicle: saline with Tween-80 93 % of control | [2] 87 % of control | [3] 88 % of control

Source: PubChem BioAssay AID248 (DTP/NCI, 2004)
